Experimental data taken from patent US8722673B2, “Imine compounds for combating invertebrate pests” (BASF SE, priority 2008, dated 2014).

Experiments:
Assay type in all cases: in vivo
[1] = test system: Western Flower Thrips (Frankliniella occidentalis); assay: Western flower thrips glass vial and leaf disc test; conditions: 300 ppm; larvae or adults; 2 DAT
Protocol: Serial dilutions of each technical grade AI were made in pure acetone. 0.5 ml of the treatment solution was deposited into the bottom of a glass vial (scintillation vial). The cap was screwed back onto the vial and inverted for about five seconds. The cap was subsequently removed and the vial laid on its side and rolled constantly, on a hot dog roller, until all the acetone had flashed off and the inner surface of the vial was dry. Cotton leave discs were also dipped simultaneously into the treatment solutions and allowed to dry. After the vials were dried, the leave discs were placed into the vials to serve as a food/water source for the thrips. Each treatment was replicated 5-fold. Western flower thrips were aspirated into the vials, approximately 5 larvae or adults/vial. Following treatment application the vials were held in a holding room under fluorescent light and constant 26° C. Thrips mortality was assessed at 2 DAT (days after treatment), counting all thrips both dead and alive.

[2] = test system: Acrobat Ant Workers (Crematogaster sp.); assay: Acrobat ant workers glass vial contact assay; conditions: 100 ppm; 48 h after treatment
Protocol: (§1) If not otherwise specified, the tests were conducted as glass vial contact assays. Glass vials (20 ml scintillation vials) were used. Treatment solutions were mixed with technical grade chemicals diluted in acetone. Treatment solutions needed for the assays included generally 1 and 10 ppm (0.01 and 0.1 μg/cm^2, respectively), but optionally also 100 and/or 1000 ppm for first tier vials. As commercial standard, alphacypermethrin was run at 1 ppm. As solvent control, acetone was used for the assay. Treatment solution was pipetted into the bottom of each vial. Each vial was turned on its side and placed onto a commercial grade hot dog roller without applying heat. The uncapped vials were allowed to roll to allow for the acetone treatment to vent off. After drying, the vials were placed into the compartmented vial shipping boxes. The workstation was prepared by chilling the table and plastic Petri dishes with the inside wall coated with Fluon. A weigh boat of 10% sugar water saturated cotton dental pellets was also prepared. The animal pests were collected into a tube with a rechargeable insect vacuum. The tube of animal pests was placed in a laboratory refrigerator until the animal pests were incapacitated. The animal pests were emptied into chilled Petri dish. A small cotton dental pellet was soaked in water or in 10 wt % sugar water, whereas the excess solution was gently squeezed out. […]

[3] = test system: Brown Dog Tick Adults (Rhipicephalus sanguineus); assay: Brown dog tick adults glass vial contact assay; conditions: 100 ppm; 3 DAT (days after treatment)
Protocol: as §1, with “incapacitated.” for “incapacitated. The animal pests were emptied into chilled Petri dish. A small cotton dental pellet was soaked in water or in 10 wt % sugar water, whereas the excess solution was gently squeezed out.”
Treatment solutions were mixed with test compound diluted in acetone at concentrations of 10 and 100 ppm. […] Ticks were evaluated by rolling the vials on a preheated hotdog roller. […]

Measured: mortality in comparison with untreated controls

Cc1cc(C2=NOC(c3cc(Cl)cc(Cl)c3)(C(F)(F)F)C2)ccc1C=NNC(=O)NCC(F)(F)F (stereo not drawn) [Compound 1-48]
at least 75%: [1] | [2] | [3]
